# Test results published in paper PMC11798738, “Targeting ASK1 by CS17919 alleviates kidney‐ and liver‐related diseases in murine models” (Animal Models and Experimental Medicine, 2024).
# Marks after values point to notes of the source that are not given here.
# Experiments:
# NASH mouse model [1] = test: CCL4- and HFD-induced NASH mouse model; type: in vivo, C57BL/6J mice; details: CS17919 20 mg/kg
# Method: 41 C57BL/6J mice, male, 6–8 weeks of age, were purchased from Chengdu Dossy Experimental Animal Co. (Chengdu, China), 9 of which were assigned in the control group and fed a chow diet. The other 32 mice were fed a HFD (D12429, Research diet, USA). After 8 weeks of feeding, these mice with HFD were subcutaneously injected with CCL4 (0.1 mL/kg) twice a week. These mice were then randomly subdivided into 4 groups according to serum ALT and AST at week 12: Model (n = 8), CS17919 (n = 8), CS27109 (n = 8), and Combination (n = 8). Both the control and model groups were given the solvent mentioned above, administered orally twice a day, while CS17919 was administered twice a day by gavage at a dose of 20 mg/kg and CS27109 was administered twice a day by gavage at a dose of 10 mg/kg for 4 weeks. The body weight of each mouse was measured every 3 days during the drug intervention. All animals were fasted overnight after the last drug administration and blood was collected to isolate serum for biochemical tests including AST, ALT, TG, TC, HDL‐c, and LDL‐c. The liver of each mouse was removed, the right lobe of which was fixed in 10% formalin solution for pathological study.
# H&E staining was applied to determine scores for liver steatosis, ballooning and inflammation in the NASH model. Thin 4 μm paraffin sections of each sample were used to assess liver histology, following a standard protocol. Paraffin sections were deparaffinized and placed in Hematoxylin staining solution for 3–8 min before using tap water to elute excess Hematoxylin. Sections were stained in Eosin stain for about 1–3 min and rinsed with tap water. Finally, the slices were dehydrated and sealed. Score ranges were 0–3 for liver steatosis, 0–2 for ballooning and 0–12 for inflammation (which included scores of 0–3 for portal inflammation, 0–3 for lobular inflammation, 0–3 for piecemeal necrosis, and 0–3 for bridging necrosis).
# Sirius Red staining was applied to determine liver fibrosis in the NASH model. Thin 4 μm paraffin sections of each sample were used in this study followed the standard procedure. Sections were first stained with Hematoxylin for 5–10 min, then washed and stained with Sirius Red stain about 15–30 min. Finally, the sections were rinsed and sealed. Image‐Pro Plus 6.0 was used for analyzing the area of liver fibrosis and the percentage of the fibrosis area in each section was calculated.
# MRC‐5 = test: MTS cytotoxicity assay, MRC-5; type: cell-based, human; details: 72 h
# Method: Human embryonic kidney cells (HEK‐293A), human hepatocellular carcinoma cells (HUH7), human embryonic liver diploid cells (CCC‐HEL‐1) and human embryonic lung cells (MRC‐5) were selected for the cytotoxicity study of both drugs, using the MTS assay protocol. Cells were cultured at 37°C with 5% CO2 using an appropriate medium. […] After 72 h of incubation, 30 μL of MTS solution was added to each well, and the cells were then incubated for 2–4 h in the dark. The absorbance value of each well at 490 nm was measured using an enzymatic plate reader and the IC50 for each drug and each cell line was calculated. Cell viability and cytoxicity experiments were repeated three times.
# CYP 2C8 = CYP 2C8 (Homo sapiens, UniProt P10632); test: CYP inhibition in vitro; type: in vitro ADME
# Chain of CYP 2C8 (P10632 whole entry): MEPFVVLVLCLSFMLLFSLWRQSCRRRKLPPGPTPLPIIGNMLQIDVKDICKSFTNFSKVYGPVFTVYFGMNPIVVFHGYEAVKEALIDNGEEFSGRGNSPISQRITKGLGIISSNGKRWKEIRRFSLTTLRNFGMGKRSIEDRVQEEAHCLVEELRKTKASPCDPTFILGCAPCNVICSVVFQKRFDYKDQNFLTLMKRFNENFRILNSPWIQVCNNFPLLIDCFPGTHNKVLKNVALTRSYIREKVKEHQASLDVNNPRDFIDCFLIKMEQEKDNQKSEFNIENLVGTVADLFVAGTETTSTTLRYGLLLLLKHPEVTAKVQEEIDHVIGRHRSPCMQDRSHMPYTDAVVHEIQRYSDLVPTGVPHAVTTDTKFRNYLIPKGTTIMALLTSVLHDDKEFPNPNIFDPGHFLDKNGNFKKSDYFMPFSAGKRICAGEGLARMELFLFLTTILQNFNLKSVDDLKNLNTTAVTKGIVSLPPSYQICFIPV
# human ASK1 kinase = human ASK1 kinase (Homo sapiens, UniProt Q99683); test: ASK1 kinase inhibition, HTRF assay; details: read-out: IC50, inhibition of ASK1, full-length recombinant human ASK1
# Chain of human ASK1 kinase (Q99683 whole entry): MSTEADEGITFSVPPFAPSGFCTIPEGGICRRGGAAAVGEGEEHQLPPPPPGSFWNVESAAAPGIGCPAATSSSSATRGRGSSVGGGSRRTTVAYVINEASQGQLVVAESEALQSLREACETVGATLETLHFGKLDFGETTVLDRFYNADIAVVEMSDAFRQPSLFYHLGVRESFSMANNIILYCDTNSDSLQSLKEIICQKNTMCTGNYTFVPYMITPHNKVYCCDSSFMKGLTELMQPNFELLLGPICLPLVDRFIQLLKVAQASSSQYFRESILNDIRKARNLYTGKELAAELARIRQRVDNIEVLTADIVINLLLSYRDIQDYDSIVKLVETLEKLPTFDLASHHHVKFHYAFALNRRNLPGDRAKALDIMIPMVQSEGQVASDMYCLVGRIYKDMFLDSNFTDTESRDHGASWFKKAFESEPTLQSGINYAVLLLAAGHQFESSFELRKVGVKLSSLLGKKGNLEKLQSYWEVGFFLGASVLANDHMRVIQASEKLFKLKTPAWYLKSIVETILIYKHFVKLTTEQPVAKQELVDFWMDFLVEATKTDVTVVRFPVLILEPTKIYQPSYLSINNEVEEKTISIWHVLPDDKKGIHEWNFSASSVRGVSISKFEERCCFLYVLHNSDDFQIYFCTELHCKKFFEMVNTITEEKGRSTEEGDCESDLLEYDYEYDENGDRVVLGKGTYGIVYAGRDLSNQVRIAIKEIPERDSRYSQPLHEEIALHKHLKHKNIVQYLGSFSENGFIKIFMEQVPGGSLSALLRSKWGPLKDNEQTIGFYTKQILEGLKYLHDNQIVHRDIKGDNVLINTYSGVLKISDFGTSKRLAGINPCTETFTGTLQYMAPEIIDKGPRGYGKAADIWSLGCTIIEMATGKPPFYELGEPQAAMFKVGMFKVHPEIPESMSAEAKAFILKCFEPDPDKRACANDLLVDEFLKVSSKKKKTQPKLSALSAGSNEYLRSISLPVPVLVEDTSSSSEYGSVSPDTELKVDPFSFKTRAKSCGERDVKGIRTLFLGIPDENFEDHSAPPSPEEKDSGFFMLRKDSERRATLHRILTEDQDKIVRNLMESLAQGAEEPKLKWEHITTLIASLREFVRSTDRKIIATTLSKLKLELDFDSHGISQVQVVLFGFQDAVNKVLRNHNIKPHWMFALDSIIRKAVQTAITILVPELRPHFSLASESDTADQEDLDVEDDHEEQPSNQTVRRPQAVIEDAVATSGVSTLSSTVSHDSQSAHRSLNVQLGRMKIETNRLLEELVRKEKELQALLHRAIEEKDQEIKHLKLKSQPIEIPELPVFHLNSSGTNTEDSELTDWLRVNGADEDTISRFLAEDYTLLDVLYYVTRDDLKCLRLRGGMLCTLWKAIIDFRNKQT
# Description: Enzymatic activity analysis was repeated three times. IC50 results were obtained using Prism 8.0 (GraphPad Prism Software).
# [2] = Metabolic stability in liver microsomes; type: in vitro ADME; details: Mouse
# HEK‐293A = test: MTS cytotoxicity assay, HEK-293A; type: cell-based, human; details: 72 h
# Method: Human embryonic kidney cells (HEK‐293A), human hepatocellular carcinoma cells (HUH7), human embryonic liver diploid cells (CCC‐HEL‐1) and human embryonic lung cells (MRC‐5) were selected for the cytotoxicity study of both drugs, using the MTS assay protocol. Cells were cultured at 37°C with 5% CO2 using an appropriate medium. For the assay, the cells were evenly distributed at 1E4 cells/well in 96‐well plates, and then CS17919 or GS‐4997 was added to the plates in a dose‐dependent manner (3‐fold dilution from 100 μmol/L). After 72 h of incubation, 30 μL of MTS solution was added to each well, and the cells were then incubated for 2–4 h in the dark. The absorbance value of each well at 490 nm was measured using an enzymatic plate reader and the IC50 for each drug and each cell line was calculated. Cell viability and cytoxicity experiments were repeated three times.
# NASH mouse model [3] = test: CCL4- and HFD-induced NASH mouse model; type: in vivo, C57BL/6J mice; details: data not shown; model group 5/9
# L02 cells = test: Cell protection in PA-stimulated L02 cells (Cell Titer-Glo viability); type: cell-based, human; details: 50 μmol/L PA, 72 h
# Method: L02 cells were cultured in DMEM medium (Gibco, 11 965 092, Carlsbad, CA, USA) supplemented with 20% FBS and 1× penicillin–streptomycin. L02 cells were inoculated in two 96‐well plates at 1E4 cells/well (200 μL). The following day, the cells were stimulated with 50 μmol/L PA (dissolved in ethanol to make a 200× stock solution and then added to the medium) and simultaneously incubated with different concentrations of CS17919 and GS‐4997 (CS17919 and GS‐4997 stock solutions were added to the well plates to reach a final concentration of 10–0.3 μmol/L). After 72 h of incubation, the original medium was removed, followed by the addition of 100 μL of new DMEM medium and 60 μL of Cell Titer‐Glo reagent per well. The cells were incubated for 5 min in the dark, and then transferred to a black permeable plate for detection using an enzyme plate reader (Tecan spark, Grödig, Austria).
# CYP3A4 = CYP3A4 (Homo sapiens, UniProt P08684); test: CYP inhibition in vitro; details: read-out: CYP3A4 (Midazolam) inhibition IC50; substrate Midazolam
# Chain of CYP3A4 (P08684 whole entry): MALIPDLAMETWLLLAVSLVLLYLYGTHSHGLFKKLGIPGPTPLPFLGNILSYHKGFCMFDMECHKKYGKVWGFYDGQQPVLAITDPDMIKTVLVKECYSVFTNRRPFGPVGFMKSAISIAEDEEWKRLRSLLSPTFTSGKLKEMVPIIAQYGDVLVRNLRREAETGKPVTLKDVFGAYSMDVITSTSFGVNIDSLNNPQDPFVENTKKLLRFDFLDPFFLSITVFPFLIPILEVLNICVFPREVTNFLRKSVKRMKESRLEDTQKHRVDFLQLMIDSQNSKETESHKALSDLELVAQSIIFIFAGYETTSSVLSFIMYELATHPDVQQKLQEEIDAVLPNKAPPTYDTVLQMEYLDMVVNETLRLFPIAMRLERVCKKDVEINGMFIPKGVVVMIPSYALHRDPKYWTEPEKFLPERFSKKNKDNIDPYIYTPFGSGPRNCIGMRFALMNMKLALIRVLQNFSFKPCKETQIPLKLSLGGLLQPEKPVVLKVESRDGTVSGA
# [4] = 4 weeks, CS27109 10 mg/kg twice a day
# [5] = serum after 4 weeks, CS27109 10 mg/kg, gavage twice a day, mean ± SD
smiles,measurement,setting,value
Cc1cc(F)c(C(=O)Nc2cccc(-c3nncn3[C@H](C)C(F)(F)F)n2)cc1NC(=O)C1CC1 [CS17919],Liver fibrosis area (Sirius Red staining),NASH mouse model [1]; [4],significantly reduced
same,Liver inflammation score (H&E),NASH mouse model [1]; [4],tended to improve
same,Liver steatosis and ballooning scores (H&E),NASH mouse model [1]; [4],barely improved
same,ALT,NASH mouse model [1]; [5],120.9 ± 80.3^a U/L
same,AST,NASH mouse model [1]; [5],193.3 ± 110.1 U/L
same,HDL‐C,NASH mouse model [1]; [5],0.604 ± 0.231 mmol/L
same,LDL‐C,NASH mouse model [1]; [5],0.054 ± 0.028^a mmol/L
same,TC,NASH mouse model [1]; [5],0.719 ± 0.251 mmol/L
same,TG,NASH mouse model [1]; [5],0.223 ± 0.106 mmol/L
same,Cytotoxicity (cell viability),MRC‐5,barely affected cell viability
same,IC50,CYP 2C8,> 10 µM
same,IC50,human ASK1 kinase,0.0225 µM
same,T1/2 in liver microsomes,[2],>145 min
same,Cytotoxicity (cell viability),HEK‐293A,barely affected cell viability
same,Occurrence of hepatocellular carcinoma (mice affected/group),NASH mouse model [3],3/8
same,Cell protection (cell viability normalized to PA-treated cells),L02 cells; 0.32–10 μmol/L drug,significantly prevented apoptosis at all doses
same,Cell viability at high drug doses,L02 cells; 5 and 10 μmol/L drug,mild protective effect
same,IC50,CYP3A4,3.02 µM
